The test system of the experiment is PBMCs from HCMV seropositive subjects. The experiment can be described thus: ex vivo IFN-γ Fluorospot assay. Format: cell-based, human. Conditions: 19 HCMV seropositive subjects, individual peptide 10 ug/ml, 20 hr; for No. of subjects responding: IFN-γ; for Magnitude of response: IFN-γ spots (FIG. 1: SFC/10^6 PBMC; no unit in table). Here is the method:
To define the targets of HCMV-specific T cell epitopes recognized in healthy adults, the inventors screened PBMCs of 19 subjects, 10 males and 9 females, recruited from San Diego blood bank (SDBB). The HCMV seropositivity of all the subjects was confirmed by IgG ELISA (FIG. 6A). A total of 2593 HCMV peptides covering a total of 563 ORFs (1) were tested. However, as many of these predicted ORFs overlapped 100% with others, as they were internal to longer ORFs, these 563 contained 359 completely unique ORFs composed of ˜150“canonical” ORFs, and an additional ˜200 identified by ribosomal RNA profiling (1). These peptides corresponded to predicted dominant epitopes, based on a bioinformatic method that predicts promiscuous binding to HLA class II molecules (40). Each of the ORFs above was covered by multiple predicted epitopes (with a minimum of at least 2), with the exception of very small ORFs (less than 15-20 amino acid residues), in which case at least one peptide was synthetized. The 2593 peptides were arranged in 89 pools of 28-30 15-mer peptides. PBMC reactivity of each of the 89 pools was assayed directly ex vivo using an IFN-γ Fluorospot assay.
For the initial CMV ORF screen, the responses of 19 CMV-seropositive subjects were evaluated. PBMCs were stimulated with 89 pools covering 563 ORFs of HCMV. Each pool comprised of 28-30 15-mer peptides overlapping by 10 residues. PBMCs that were found reactive to a pool were further tested against individual peptides contained in the pool using IFN-γ Fluorospot assay.
PBMC were thawed, washed and counted for viability using the trypan blue exclusion method. 200,000 cells were plated in triplicates and stimulated with pools (2 ug/ml) or peptides (10 ug/ml), PHA (10 ug/ml) or medium containing equivalent amount of DMSO in 96-well plates (Immubilion-P, Millipore) previously coated with anti IFN-γ antibody (1-DIK, Mabtech, Stockholm, Sweden). After 20 hr incubation at 37° C., cells were discarded and wells were washed six times with PBS/0.05% Tween 20 using an automated plate washer and further incubated with IFN-γ antibody (7-B6-1-FS-BAM) for 2 hrs at room temperature. After incubation, wells were washed and incubated with fluorophore conjugated anti-BAM-490 antibody for 1 hr at room temperature. Finally, the plates were washed and incubated with fluorescence enhancer for 15 min, blotted dry and fluorescent spots were counted by computer assisted image analysis (IRIS Fluorospot reader, Mabtech, Sweden).
Each pool or peptide was considered positive compared to the background that had equivalent amount of DMSO based on the following criteria: (i) 20 or more spot forming cells (SFC) per 10^6 PBMC after background subtraction, (ii) the stimulation index greater than 2, and (iii) p<0.05 by student's t test or Poisson distribution test

Where no end group is shown, it is not given here.

With “134 (RLGTAATQIQKQTLY; ends and bridges not checked) [compound 134]”, the “No. of subjects responding” value came out at 1 and the Magnitude of response is 30.

On to “46 (SYRSTYIILLLTWFA; ends and bridges not checked) [compound 46]”, for which the “No. of subjects responding” value is listed as 3 and the Magnitude of response is listed as 3990.

For 200 (LSVRYLSLTAYMLLA) [compound 200], the “No. of subjects responding” value was 1 and the Magnitude of response came to 1200.

Turning to 94 (SFYLVNAMSRNLFRV) [compound 94], the “No. of subjects responding” value is listed as 1 and the Magnitude of response came to 43.

Take 56 (RHRFLWQRRRRARLL) [compound 56]: the “No. of subjects responding” value amounted to 1 and the Magnitude of response is on record as 1000.

As to 182 (SYLAVHLRISHRYYH) [compound 182], the “No. of subjects responding” value was 1 and the Magnitude of response is recorded as 290.

Regarding 28 (LHCMRYLTSSLVKRY) [compound 28], the “No. of subjects responding” value is recorded as 1 and the Magnitude of response is recorded as 150.

For 18 (AEDSVFTSTRARSAT) [compound 18], the “No. of subjects responding” value was found to be 1 and the Magnitude of response is 490.

For 210 (LWYLGDYGAILKIYF) [compound 210], the “No. of subjects responding” value is recorded as 1 and the Magnitude of response is recorded as 40.

Turning to 3 (RVRTWFVQRTTLWRR) [compound 3], the “No. of subjects responding” value was found to be 1 and the Magnitude of response stood at 60.

Regarding 19 (KFVLQDFDVQHLRRL) [compound 19], the “No. of subjects responding” value was found to be 1 and the Magnitude of response came out at 40.

Turning to 224 (LFRAGLMKVYVRRRY) [compound 224], the “No. of subjects responding” value stood at 1 and the Magnitude of response is recorded as 870.

Turning to 33 (MLFRPTISNSIPRCR) [compound 33], the “No. of subjects responding” value came out at 1 and the Magnitude of response amounted to 47.

In the case of 153 (RATGNFRSTSLYAAV) [compound 153], the “No. of subjects responding” value is 3 and the Magnitude of response amounted to 4220.

Consider “5 (QGATYQLSIVRQAMQ; ends and bridges not checked) [compound 5]”, for which the “No. of subjects responding” value came out at 1 and the Magnitude of response is given as 650.

As for 79 (AILSAIYNKPIAARF) [compound 79], the “No. of subjects responding” value is recorded as 5 and the Magnitude of response worked out at 11264.

Regarding 171 (ITKPEVISVMKRRIE) [compound 171], the “No. of subjects responding” value is 1 and the Magnitude of response stood at 1600.

Consider 98 (IKMWFLLGAPMIAVL) [compound 98], for which the “No. of subjects responding” value is reported as 3 and the Magnitude of response was determined as 2867.

On to 27 (EAYVRINAGQVLPVV) [compound 27], for which the “No. of subjects responding” value is listed as 1 and the Magnitude of response worked out at 1853.

Take 195 (SLDRFIVQYLNTLLI) [compound 195]: the “No. of subjects responding” value came out at 8 and the Magnitude of response was 23368.

Regarding 164 (LQTMLRKEVNSQLSL) [compound 164], the “No. of subjects responding” value was found to be 2 and the Magnitude of response is recorded as 1606.

As for 149 (CDLPLVSSRLLPETS) [compound 149], the “No. of subjects responding” value is 1 and the Magnitude of response turned out to be 123.

Turning to 211 (LFCGACVITRSLLLI) [compound 211], the “No. of subjects responding” value is on record as 1 and the Magnitude of response stood at 487.

In the case of 151 (DPLLRLSQVAGSGRR) [compound 151], the “No. of subjects responding” value amounted to 2 and the Magnitude of response is recorded as 2067.

Take 70 (YQKVLTFRRSYAYIH) [compound 70]: the “No. of subjects responding” value is 1 and the Magnitude of response stood at 40.

As to 60 (KFIFELYRLPRLSIA) [compound 60], the “No. of subjects responding” value came out at 1 and the Magnitude of response is on record as 173.

Regarding 96 (TAVSEFMKNTHVLIR) [compound 96], the “No. of subjects responding” value worked out at 1 and the Magnitude of response amounted to 747.

As for 114 (GILARNLVPMVATVQ) [compound 114], the “No. of subjects responding” value came to 11 and the Magnitude of response was found to be 34633.

In the case of 209 (PWWRRLRVKRPKFPS) [compound 209], the “No. of subjects responding” value came out at 1 and the Magnitude of response amounted to 240.

Turning to 217 (VFQKTLSMLQGLYLR) [compound 217], the “No. of subjects responding” value is 2 and the Magnitude of response came to 327.

Regarding 193 (FCVYRYNARLTRGYV) [compound 193], the “No. of subjects responding” value was found to be 3 and the Magnitude of response amounted to 700.

Consider 92 (MQKYFSLDNFLHDYV) [compound 92], for which the “No. of subjects responding” value was determined as 2 and the Magnitude of response is recorded as 20343.

Take 141 (LRVTFHRVKPTLQRE) [compound 141]: the “No. of subjects responding” value was 2 and the Magnitude of response is 830.

On to 53 (EFLVRQYVLVDTFGV) [compound 53], for which the “No. of subjects responding” value is on record as 2 and the Magnitude of response was determined as 104.

Take 206 (IRRWWISVAIVIFIG) [compound 206]: the “No. of subjects responding” value is recorded as 3 and the Magnitude of response is listed as 10480.

Turning to 102 (GALTLVIPSWHVFAS) [compound 102], the “No. of subjects responding” value is reported as 2 and the Magnitude of response was determined as 190.

Take “39 (VNAVNKLVYTGRLIM; ends and bridges not checked) [compound 39]”: the “No. of subjects responding” value is 1 and the Magnitude of response was 340.

With 117 (LTWCVIADRQPRFSV) [compound 117], the “No. of subjects responding” value worked out at 3 and the Magnitude of response stood at 240.

137 (LEERDEWVRSLAVDA) [compound 137]: the “No. of subjects responding” value was found to be 1 and the Magnitude of response was found to be 47.

On to 189 (HVRLLSYRGDPLVFK) [compound 189], for which the “No. of subjects responding” value was 3 and the Magnitude of response is on record as 333.

With 142 (SGRVILWTTLRLCIL) [compound 142], the “No. of subjects responding” value is given as 1 and the Magnitude of response was determined as 20.

In the case of 218 (GLYLRQYDPPALRTY) [compound 218], the “No. of subjects responding” value was determined as 2 and the Magnitude of response turned out to be 633.

225 (VVFMGRFSRVYAYDT) [compound 225]: the “No. of subjects responding” value is 1 and the Magnitude of response is listed as 70.

In the case of 203 (VYLWYVRRQLVAFCL) [compound 203], the “No. of subjects responding” value is on record as 3 and the Magnitude of response turned out to be 253.

In the case of 78 (KELSKINPSAILSAI) [compound 78], the “No. of subjects responding” value is 3 and the Magnitude of response was 18557.

On to 87 (NIFLVGFYLLVPYLG) [compound 87], for which the “No. of subjects responding” value is reported as 1 and the Magnitude of response is 1633.

Turning to 1 (NGIRWQYQELQYLVE) [compound 1], the “No. of subjects responding” value is 2 and the Magnitude of response was 222.

In the case of 69 (HTFKVRVYQKVLTFR) [compound 69], the “No. of subjects responding” value stood at 1 and the Magnitude of response was found to be 423.

In the case of 220 (QIYARSLAADYLCCD) [compound 220], the “No. of subjects responding” value is listed as 1 and the Magnitude of response worked out at 33.

For the substance 26 (VLATLAAVRTRRRSV) [compound 26], the “No. of subjects responding” value was 2 and the Magnitude of response turned out to be 340.

Turning to 103 (CRSATSLVGNTNADV) [compound 103], the “No. of subjects responding” value worked out at 1 and the Magnitude of response came to 30.

Turning to 116 (RVTGLVFSVVFSVSL) [compound 116], the “No. of subjects responding” value stood at 4 and the Magnitude of response is recorded as 6380.

233 (HDPLGLTRFIMRQLM) [compound 233]: the “No. of subjects responding” value is given as 1 and the Magnitude of response turned out to be 473.

On to 14 (KDRCLVIRRRWRLVR) [compound 14], for which the “No. of subjects responding” value is given as 1 and the Magnitude of response was found to be 60.

The values above are taken from patent publication US20250332249A1, “CYTOM[…] CELL EPITOPES AND USES THEREOF” (LA JOLLA INSTITUTE FOR IMMUNOLOGY, priority 2021, published 2025).
